Reference: patent publication US20130172246A1, “INSULIN GLARGINE VERSUS METFORMIN FOR THE FIRST-LINE TREATMENT OF EARLY TYPE-2 DIABETES” (priority 2011, published 2013)

Legend:
[1] = system: type 2 diabetes patients; experiment: Laboratory analyses in the clinical trial: HbA1c, plasma glucose, lipids, hsCRP; format: in vivo, human
Protocol: Test meal: On the morning of the 2nd day of the CGM, there is a standardized test meal in the trial center. This test meal (TM) consists of 95 g of whole-wheat bread, 20 g of margarine, 25 g of fruit preserves, 25 g of cheese, 200 ml of orange juice, 200 ml of milk mix with banana, strawberry or cocoa with a total of 560 Kcal. Blood is taken from the patient prior to the TM (after night-time fasting period of at least 8 hours). […] From the 1st bite, the time is measured, and after 2 h have elapsed, a 2nd blood collection is performed. During the TM and during the two hours thereafter, the patient should move as little as possible so as not to falsify the monitoring.
Fasting blood is collected between 7 and 9 o'clock in the morning when the patient turns up at the center.
Laboratory analyses: The blood samples for the clinical laboratory tests are analyzed in the central laboratory and the local laboratories according to standardized conditions. The central laboratory and the local laboratories provide on request corresponding documentation (e.g., normal value tables, round-robin test certificates in accordance with RiLiBÄK (Guidelines of the German Medical Association)) for the trial master file. The central laboratory is responsible for the collection, transport and analysis of the blood samples and instructs the trial center on sample management.
The patients were treated with either metformin (MET, 1000 mg b.i.d. (n=3)) or insulin glargine (GLA) q.d. just before bedtime (n=3). […] At the start and end of the study, the HbA1c level and the plasma glucose, proinsulin and C-peptide concentrations were determined. […] All the patients received a standardized test meal on the second day of the continuous glucose monitoring for comparison of the interindividual postprandial (pp) glucose excursions.

[2] = system: type 2 diabetes patients; experiment: Parameters of beta-cell function (insulin, proinsulin, C-peptide, HOMA) fasting and 2 h after test meal; format: in vivo, human
Protocol: Below is a list of the various target parameters: • Protection of the β-cells by early insulin therapy • C-Peptide (fasting and 2 h pp after TM) • Proinsulin (fasting and 2 h pp after TM) • Glycemic variability: • Glycemic load • Standard deviation (SD), • MAGE • HbA1c • Anti-inflammatory action of insulin: • Biomarkers of subclinical inflammation (fasting and 2 h pp) • hsCRP, • PAI-1, • Leukocyte count • Back-up samples for determining • MMP9 • ADMA • Adiponectin • Effect on endothelial function • Endothelial function at ball of thumb using laser Doppler (O2C) • Effect on renal function • Microalbuminuria (albumin/creatinine ratio) • Serum creatinine • Risk of hypoglycemia • Hypoglycemic intervals (time<3 mmol glucose) during CGM over 48 hours (day 2+3 after TM) • Free fatty acids
Test meal: On the morning of the 2nd day of the CGM, there is a standardized test meal in the trial center. This test meal (TM) consists of 95 g of whole-wheat bread, 20 g of margarine, 25 g of fruit preserves, 25 g of cheese, 200 ml of orange juice, 200 ml of milk mix with banana, strawberry or cocoa with a total of 560 Kcal. Blood is taken from the patient prior to the TM (after night-time fasting period of at least 8 hours). Subsequently, the TM should be eaten within 15 min. From the 1st bite, the time is measured, and after 2 h have elapsed, a 2nd blood collection is performed. During the TM and during the two hours thereafter, the patient should move as little as possible so as not to falsify the monitoring.
• HbA1c chromatographically by HLPC (device: TOSOH A1c) • Plasma glucose by enzymatic UV test HK (device: Selectra) • Creatinine in urine by PAP test (enzyme-photometrically) (device: Selectra) • Albumin in urine (spontaneous) by immunoturbidimetric method (device: Selectra) • Microalbuminuria (calculated: albumin/creatinine ratio) • Serum creatinine enzyme-photometrically by means of creatinine PAP test (device: Selectra) • ALAT, ASAT by optimized UV method according to IFCC (device: Selectra) • Insulin by ELISA (solid-phase enzyme immunoassay; device: Anthos) • C-peptide by ELISA (solid-phase enzyme immunoassay; device: Anthos) • Proinsulin (intact) (solid-phase enzyme immunoassay; device: Anthos) • Triglycerides by GPO-PAP method (device: Selectra) • HDL cholesterol by enzymatic test (device: Selectra) • LDL cholesterol by enzymatic test (device: Selectra) • Free fatty acids by photometric method (NEFA) (device: Selektra) • hsCRP by immunoturbidimetric method (device: Selectra) • PAI-1 (plasminogen activator inhibitor active antigen) bioimmunoassay • Leukocyte count by electronic counting • Pregnancy test (urine dipstick)
In the study in the previous examples, 75 patients (45 men, 30 women, mean age: 60.7±9.2 years) were examined, whose first diagnosis of type 2 diabetes dated back to less than 5 years and whose HbA1c level was between 6.5 and 8.5%. The patients were treated with either metformin (MET, 1000 mg b.i.d. (n=3)) or insulin glargine (GLA) q.d. just before bedtime (n=3). The insulin dose was adjusted for a target plasma glucose concentration (FPG) of ≦5.6 mmol/L according to a standardized titration algorithm. At the start and end of the study, the HbA1c level and the plasma glucose, proinsulin and C-peptide concentrations were determined. […] All the patients received a standardized test meal on the second day of the continuous glucose monitoring for comparison of the interindividual postprandial (pp) glucose excursions.

[3] = per protocol, change visit 1 to visit 8, mean (SD)
[4] = per protocol, change visit 1 to visit 8, mean (SD), unit as in Table 4
[5] = per protocol, week 36, mean (SD)
[6] = per protocol, week 36, mean (SD), unit as in Table 4
[7] = per protocol, change visit 1 to visit 8, mean

CN(C)C(=N)N=C(N)N [Metformin]
HbA1c level at end of study ([1]; after 36 weeks of treatment, GLA vs. MET n.s.): 6.3% | HbA1c level at start of study ([1]; baseline value of the 'x to y' pair): 6.9% | Triglycerides - change [1, 3]: −0.2 (1.1) mmol/l | HDL - change [1, 4]: 0.1 (0.2) mmol/l | HbA1c - change [1, 4]: −0.6 (0.4) % | LDL - change [1, 4]: −0.03 (0.6) mmol/l | Plasma glucose - change, 2 h after test meal [1, 4]: −1.6 (2.5) mmol/l | Plasma glucose - change, Fasting [1, 4]: −1.4 (1.5) mmol/l | Total chol. - change [1, 4]: −0.02 (0.7) mmol/l | hsCRP - change [1, 4]: −0.2 (2.2) mg/l | Triglycerides - visit 8 [1, 5]: 1.9 (0.8) mmol/l | HDL - visit 8 [1, 6]: 1.3 (0.4) mmol/l | HbA1c - visit 8 [1, 6]: 6.3 (0.3) % | LDL - visit 8 [1, 6]: 3.1 (0.9) mmol/l | Plasma glucose - visit 8, 2 h after test meal [1, 6]: 8.4 (2.1) mmol/l | Plasma glucose - visit 8, Fasting [1, 6]: 7.2 (1.0) mmol/l | Total chol. - visit 8 [1, 6]: 5.3 (1.0) mmol/l | hsCRP - 8th visit [1, 6]: 3.1 (5.2) mg/l | reduction in the FPG level (Δ) ([1]; start to end of study (36 weeks), GLA vs. MET p<0.001): 1.4 ± 1.5 mmol/L | ratio of proinsulin to C-peptide ([2]; after treatment, indicating improvement in beta-cell function): significant reduction | Insulin-C-peptide ratio - change, 2 h after test meal [2, 7]: −38956.8 | Insulin-C-peptide ratio - change, Fasting [2, 7]: −25386.1 | Proinsulin-C-peptide ratio - change, 2 h after test meal [2, 7]: −1668.7 | Proinsulin-C-peptide ratio - change, Fasting [2, 7]: −1386.3 | HOMA - change [2, 3]: 4.4 (19.5) | Insulin-proinsulin ratio - change, 2 h after test meal [2, 3]: 3.0 (8.4) | Insulin-proinsulin ratio - change, Fasting [2, 3]: 2.9 (7.6) | C-peptide - change, 2 h after test meal [2, 4]: −0.1 (2.0) nmol/l | C-peptide - change, Fasting [2, 4]: −0.3 (0.8) nmol/l | Insulin - change, 2 h after test meal [2, 4]: −11.1 (30.2) mU/l | Insulin - change, Fasting [2, 4]: −2.7 (3.6) mU/l | Proinsulin - change, 2 h after test meal [2, 4]: −6.9 (14.5) pmol/l | Proinsulin - change, Fasting [2, 4]: −3.2 (4.2) pmol/l | Insulin-C-peptide ratio - visit 8, 2 h after test meal ([2]; per protocol, week 36, mean): 41915.2 | Insulin-C-peptide ratio - visit 8, Fasting ([2]; per protocol, week 36, mean): 25456.9 | Proinsulin-C-peptide ratio - visit 8, 2 h after test meal ([2]; per protocol, week 36, mean): 2458.1 | Proinsulin-C-peptide ratio - visit 8, Fasting ([2]; per protocol, week 36, mean): 2142.4 | HOMA - visit 8 [2, 5]: 56.3 (34.5) | Insulin-proinsulin ratio - visit 8, 2 h after test meal [2, 5]: 24.7 (27.1) | Insulin-proinsulin ratio - visit 8, Fasting [2, 5]: 16.7 (17.4) | C-peptide - visit 8, 2 h after test meal [2, 6]: 7.9 (3.4) nmol/l | C-peptide - visit 8, Fasting [2, 6]: 2.7 (1.1) nmol/l | Insulin - visit 8, 2 h after test meal [2, 6]: 50.8 (39.7) mU/l | Insulin - visit 8, Fasting [2, 6]: 10.0 (6.0) mU/l | Proinsulin - visit 8, 2 h after test meal [2, 6]: 20.4 (19.9) pmol/l | Proinsulin - visit 8, Fasting [2, 6]: 5.8 (4.6) pmol/l
